Assays:
Assay type in all cases: cell-based, human
STAT3 = assay: Western blot of pSTAT3 and STAT3; conditions: tofacitinib 1 μM, 24 hours; GBM12 and GBM6
Description: Mayo PDX cells were serum starved overnight. Following treatment for specific time, cells were harvested and lysed. The human glioblastoma tissues were ground in liquid nitrogen and then were lysed. […] TGFα antibody was from R&D system.
. . . […] A similar experiment was performed in GBM6 (FIG. 18F). […] The Western blot images are representative of three independent biological replicates. Actin served as loading control. Data are represented as mean±SEM from three independent experiments. *P<0.05, **P<0.01, ***P<0.001, unpaired two-tailed t-test.

BIN3 promoter = assay: ChIP assay of EGR1 occupancy; conditions: EGF, 24 hours; GBM12 and GBM6
Description: Chromatin immunoprecipitation (ChIP) assays were performed using a ChIP assay kit (Upstate Biotechnology, Lake Placid, N.Y., USA). Cells were treated with or without EGF for the indicated time points or transfected with indicated vectors for 48 hours followed by cell fixation, lysis, chromatin shearing, antibody incubation and washing according to the manufacturer's protocol. ChIP grade anti-EGR1 (4153) or anti-Nanog antibody (5232) antibody from Cell Signaling Technology (Danvers, Mass.) was used to selectively precipitate the corresponding protein-DNA complex. RT-PCR was performed using ViiA 7 Real-Time PCR System (Applied Biosystems) to measure the relative amounts of ChIP DNA and results were quantified relative to inputs. The data are expressed as percentage of input. Following are primer sets: BIN3_Forward: 5′-[…]-3′ (SEQ ID NO:1); BIN3_Reverse: 5′-[…]-3′ (SEQ ID NO:2); EMP1_Forward: 5′-[…]-3′ (SEQ ID NO:3); EMP1_Reverse: 5′-[…]-3′ (SEQ ID NO:4).
Referring to FIG. 8A-D, EGF induces EGR1 activity and enrichment on the BIN3 promoter. […] Cells were transiently transfected with EGR1 firefly luciferase reporter vector and Renilla luciferase vector for 48 hours, EGF was added for additional 2 or 24 hours prior to measuring luciferase activity. […] Cells were treated with or without EGF for 24 hours. ChIP assay was performed as described elsewhere herein. IgG was used as negative control. […]

Met = assay: Western blot of pMet and total Met; conditions: HGF 20 ng/ml; GBM12 and GBM6
Description: Whole protein extracts from cells or tumor tissues were analyzed by western blot as previously described (Altieri et al. (2015) Surg. Technol. Int 27: 297-302). Mayo PDX cells were serum starved overnight. Following treatment for specific time, cells were harvested and lysed. The human glioblastoma tissues were ground in liquid nitrogen and then were lysed. EGFR (06-847) antibody was from Millipore. DOCK7 was from Proteintech (Rosemont, Ill.). pEGFR (2236), STAT3 (12640), pSTAT3 (9145), cdc42(4376), and RhoA (4695) antibodies were from Cell Signaling Technology (Danvers, Mass.). TGFα antibody was from R&D system. BIN3 (sc-514396) and (3-Actin (sc-47778) were from Santa Cruz Biotechnology (Dallas, Tex.).
Referring to FIG. 11A-E, HGF induces invasion in GBM12 and GBM6. […] Cells were seeded on Matrigel coated inserts for 24 hours in the absence or presence of HGF (20 ng/ml). A Western blot analysis of DOCK7 antibody immunoprecipitated extracts from GBM12 and GBM6 treated with HGF for 24 hours (20 ng/ml) is shown in FIG. 11C. A Western blot showing GTP-bound RhoA (RhoA-GTP) and total RhoA levels after HGF treatment for 24 hours in GBM12 and GBM6 is shown in FIG. 11D. A Western blot showing CDC42-GTP and total CDC42 levels after HGF treatment (20 ng/ml) for 24 hours in GBM12 and GBM6. The Western blot images are representative of three independent biological replicates. […]

C[C@@H]1CCN(C(=O)CC#N)C[C@@H]1N(C)c1ncnc2[nH]ccc12 [tofacitinib]
phosphorylation of STAT3 (STAT3): blocks phosphorylation

EGF: Recombinant human EGF (AF-100) from Peprotech; EGFR ligand
EGR1 occupancy of BIN3 promoter (BIN3 promoter): occupies the BIN3 promoter

HGF: the ligand for Met
Met phosphorylation (Met): increased

From patent publication US20230075368A1, “IDENTIFICATION OF AN EGFR-BIN3 PATHWAY THAT ACTIVELY SUPPRESSES INVASION AND REDUCES TUMOR SIZE IN GLIOBLASTOMA” (The United States Govemment as represented by the …, priority 2020, published 2023)
